This note sets out measurements from ChEMBL document CHEMBL1201862, “PubChem BioAssay data set” (2004).

Active and inactive are the calls of the source.

Data set [1] addresses T1, DNA dC->dU-editing enzyme APOBEC-3A (Homo sapiens, UniProt P31941). The experiment in a line: APOBEC3A DNA deaminase inhibitors, dose response, biochemical (AID 504722). The class given is functional.
The target in data set [2] is T2, DNA dC->dU-editing enzyme APOBEC-3G (Homo sapiens, UniProt Q9HC16). As to the kind of experiment: Dose Response confirmation of small molecule APOBEC3G DNA Deaminase Inhibitors via a fluorescence-based single-stranded DNA deaminase assay. [Related pubchem assays (depositor defined):AID493012, AID493028]. The class given is functional.
T2 sequence (Q9HC16 whole entry): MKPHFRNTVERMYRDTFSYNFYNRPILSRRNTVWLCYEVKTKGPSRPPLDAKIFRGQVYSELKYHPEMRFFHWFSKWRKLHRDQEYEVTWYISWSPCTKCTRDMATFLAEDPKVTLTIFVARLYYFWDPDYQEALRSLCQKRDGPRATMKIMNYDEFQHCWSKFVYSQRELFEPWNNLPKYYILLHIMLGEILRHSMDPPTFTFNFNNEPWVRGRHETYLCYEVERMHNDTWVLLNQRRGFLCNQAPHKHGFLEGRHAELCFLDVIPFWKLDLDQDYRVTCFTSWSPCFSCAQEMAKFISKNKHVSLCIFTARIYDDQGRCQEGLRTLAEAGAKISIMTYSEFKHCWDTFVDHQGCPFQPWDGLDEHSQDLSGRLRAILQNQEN
Data set [3] has as its target T1, DNA dC->dU-editing enzyme APOBEC-3A. The experiment in a line: Dose Response confirmation of small molecule APOBEC3A DNA Deaminase Inhibitors via a fluorescence-based single-stranded DNA deaminase assay. [Related pubchem assays (depositor defined):AID493011, AID493024]. The class given is functional.
Data set [4] addresses T2, DNA dC->dU-editing enzyme APOBEC-3G. The class given is functional.
The target of data set [5] is Glucose-6-phosphate 1-dehydrogenase (Homo sapiens, UniProt P11413). The experiment in a line: human G6PD enzyme inhibitors, dose response, selectivity assay for P. falciparum G6PD inhibitor project, biochemical, fluorescence (AID 504792). In kind it is functional.
Chain of Glucose-6-phosphate 1-dehydrogenase (P11413 whole entry): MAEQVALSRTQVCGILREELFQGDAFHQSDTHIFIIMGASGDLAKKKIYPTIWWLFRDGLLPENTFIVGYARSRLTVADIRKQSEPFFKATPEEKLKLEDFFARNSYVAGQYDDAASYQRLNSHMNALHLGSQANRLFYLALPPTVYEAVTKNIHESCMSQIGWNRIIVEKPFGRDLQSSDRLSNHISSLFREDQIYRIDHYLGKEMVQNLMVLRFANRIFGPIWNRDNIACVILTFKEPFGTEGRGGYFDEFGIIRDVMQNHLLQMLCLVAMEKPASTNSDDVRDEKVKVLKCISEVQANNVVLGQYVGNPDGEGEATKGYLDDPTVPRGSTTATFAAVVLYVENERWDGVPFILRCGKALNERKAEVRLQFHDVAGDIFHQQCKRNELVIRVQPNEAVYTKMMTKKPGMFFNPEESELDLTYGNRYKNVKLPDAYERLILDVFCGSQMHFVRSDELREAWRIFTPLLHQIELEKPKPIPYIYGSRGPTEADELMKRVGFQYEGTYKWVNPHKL
In data set [6] the target is T3, Short transient receptor potential channel 4 (Mus musculus, UniProt Q9QUQ5).
T3 sequence (Q9QUQ5 whole entry): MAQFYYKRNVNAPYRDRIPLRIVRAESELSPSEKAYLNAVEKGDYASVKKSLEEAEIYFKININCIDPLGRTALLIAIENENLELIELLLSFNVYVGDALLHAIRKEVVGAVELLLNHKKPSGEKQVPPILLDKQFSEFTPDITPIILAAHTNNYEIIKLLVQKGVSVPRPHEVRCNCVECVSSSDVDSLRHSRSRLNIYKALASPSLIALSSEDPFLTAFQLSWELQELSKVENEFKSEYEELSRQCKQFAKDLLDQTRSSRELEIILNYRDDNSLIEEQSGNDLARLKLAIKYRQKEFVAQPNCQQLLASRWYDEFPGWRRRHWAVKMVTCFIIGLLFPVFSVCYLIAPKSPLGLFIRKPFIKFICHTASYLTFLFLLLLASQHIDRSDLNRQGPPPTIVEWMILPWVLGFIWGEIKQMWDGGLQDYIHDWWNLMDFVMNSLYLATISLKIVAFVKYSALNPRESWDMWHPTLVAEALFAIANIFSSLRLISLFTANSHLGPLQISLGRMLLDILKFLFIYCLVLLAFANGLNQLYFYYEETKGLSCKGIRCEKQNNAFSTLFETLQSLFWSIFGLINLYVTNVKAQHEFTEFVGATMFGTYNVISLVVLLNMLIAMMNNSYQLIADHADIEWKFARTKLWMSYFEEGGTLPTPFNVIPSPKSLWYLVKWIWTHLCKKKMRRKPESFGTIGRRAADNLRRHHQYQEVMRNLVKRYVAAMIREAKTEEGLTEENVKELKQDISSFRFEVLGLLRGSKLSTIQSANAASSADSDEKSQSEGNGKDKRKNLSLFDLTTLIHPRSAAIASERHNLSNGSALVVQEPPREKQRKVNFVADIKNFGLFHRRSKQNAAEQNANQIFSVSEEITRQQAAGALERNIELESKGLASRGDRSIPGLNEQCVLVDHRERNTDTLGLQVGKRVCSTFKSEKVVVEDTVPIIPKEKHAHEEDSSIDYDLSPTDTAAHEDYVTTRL
As to the kind of experiment: mouse TRPC4 channel activators, dose response, cell-based, HEK293 TRPC4/mu-opioid, Fluo-4 calcium (AID 434937). The class given is functional.

For another data set, the system named is H9c2. The experiment in a line: cells. The class given is functional, cell-based. Particulars: Rattus norvegicus, H9c2, Myocardium.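 Further: confirmatory concentration-response retest of ultra-high-throughput screening hits for modulation of myocardial damage; cell death induced by hydrogen peroxide oxidative stress; compound pretreatment for 60 min then peroxide exposure for 2 h; potency is for protecting the cells against peroxide damage rather than for killing them.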
For data set [7], the target named is T4, RNA-binding protein pos-1 (Caenorhabditis elegans, UniProt G5EF15).
T4 sequence (G5EF15 whole entry): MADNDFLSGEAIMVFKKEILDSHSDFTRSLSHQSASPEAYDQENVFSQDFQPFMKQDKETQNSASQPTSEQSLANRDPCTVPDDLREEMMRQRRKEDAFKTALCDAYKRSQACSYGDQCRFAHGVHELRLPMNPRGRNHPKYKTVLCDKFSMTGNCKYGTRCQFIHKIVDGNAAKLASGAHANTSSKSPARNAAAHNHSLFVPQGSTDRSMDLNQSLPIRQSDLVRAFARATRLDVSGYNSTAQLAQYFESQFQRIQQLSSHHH
As to the kind of experiment: inhibitors of POS-1/mex-3 RNA binding, dose response, biochemical, fluorescence polarization (AID 1964).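 Further: purified POS-1 fused to maltose binding protein made in E. coli; potency of compounds blocking POS-1 binding to fluorescent RNA.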 On the technique in general: In fluorescence polarisation assays a small probe gives low polarisation when free and higher when bound to something large.

Another data set deals with Troponin, cardiac muscle (Homo sapiens, UniProt P19429+P45379+P63316). As to the kind of experiment: Fluorescence-based biochemical high throughput dose response assay for activators of the calcium sensitivity of cardiac Regulated Thin Filaments (RTF). [Related pubchem assays (depositor defined):AID493008, AID493018, AID504382, AID504383]. The class given is protein-complex assay.

Data set [8] concerns the target T5, Zinc finger protein mex-5 (Caenorhabditis elegans, UniProt Q9XUB2).
T5 sequence (Q9XUB2 whole entry): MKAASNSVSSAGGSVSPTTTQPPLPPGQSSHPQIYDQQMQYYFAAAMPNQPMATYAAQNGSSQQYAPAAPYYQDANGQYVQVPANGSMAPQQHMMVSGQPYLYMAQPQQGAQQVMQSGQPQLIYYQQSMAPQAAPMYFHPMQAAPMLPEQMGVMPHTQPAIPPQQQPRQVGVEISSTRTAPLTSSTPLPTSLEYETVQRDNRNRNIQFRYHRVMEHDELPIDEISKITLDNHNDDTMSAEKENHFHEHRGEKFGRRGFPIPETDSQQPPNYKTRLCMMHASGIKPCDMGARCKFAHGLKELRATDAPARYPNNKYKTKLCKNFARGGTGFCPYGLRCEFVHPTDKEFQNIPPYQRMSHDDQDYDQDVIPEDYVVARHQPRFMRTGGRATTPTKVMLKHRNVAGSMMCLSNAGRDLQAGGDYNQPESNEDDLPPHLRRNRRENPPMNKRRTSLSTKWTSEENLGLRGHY
The experiment in a line: MEX-5/TCR-2 RNA interaction inhibitors, dose response, biochemical, C. elegans, fluorescence polarization (AID 1960).

Another data set has as its target Cytochrome P450 2C9 (Homo sapiens, UniProt P11712).
The next data set concerns the target Cytochrome P450 3A4 (Homo sapiens, UniProt P08684).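 Further: CYP3A4 tested as one member of a cytochrome P450 panel screen.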
Data set [9] has as its target Glyceraldehyde-3-phosphate dehydrogenase (Homo sapiens, UniProt P04406).
For data set [10], the target named is T6, Alkaline phosphatase, tissue-nonspecific isozyme (Homo sapiens, UniProt P05186).
T6 sequence (P05186 whole entry): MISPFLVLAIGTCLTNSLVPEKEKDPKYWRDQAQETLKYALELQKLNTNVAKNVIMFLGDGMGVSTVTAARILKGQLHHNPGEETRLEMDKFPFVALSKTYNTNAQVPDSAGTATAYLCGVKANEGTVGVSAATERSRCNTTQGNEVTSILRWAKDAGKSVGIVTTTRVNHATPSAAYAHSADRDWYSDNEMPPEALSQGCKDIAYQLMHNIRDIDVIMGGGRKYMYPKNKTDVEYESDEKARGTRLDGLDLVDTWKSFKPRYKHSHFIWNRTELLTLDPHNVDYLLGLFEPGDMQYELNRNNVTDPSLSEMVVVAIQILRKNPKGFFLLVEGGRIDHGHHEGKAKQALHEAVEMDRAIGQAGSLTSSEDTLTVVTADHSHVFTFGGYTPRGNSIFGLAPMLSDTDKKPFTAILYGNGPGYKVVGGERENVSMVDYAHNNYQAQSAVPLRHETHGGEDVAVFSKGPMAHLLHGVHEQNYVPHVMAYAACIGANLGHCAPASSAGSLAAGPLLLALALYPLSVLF
The experiment in a line: human TNAP enzyme inhibitors, SAR follow-up, biochemical, luminescent, dose response (AID 1056).

The target of data set [11] is T7, Rac GTPase-activating protein 1 (Homo sapiens, UniProt Q9H0H5).
T7 sequence (Q9H0H5 whole entry): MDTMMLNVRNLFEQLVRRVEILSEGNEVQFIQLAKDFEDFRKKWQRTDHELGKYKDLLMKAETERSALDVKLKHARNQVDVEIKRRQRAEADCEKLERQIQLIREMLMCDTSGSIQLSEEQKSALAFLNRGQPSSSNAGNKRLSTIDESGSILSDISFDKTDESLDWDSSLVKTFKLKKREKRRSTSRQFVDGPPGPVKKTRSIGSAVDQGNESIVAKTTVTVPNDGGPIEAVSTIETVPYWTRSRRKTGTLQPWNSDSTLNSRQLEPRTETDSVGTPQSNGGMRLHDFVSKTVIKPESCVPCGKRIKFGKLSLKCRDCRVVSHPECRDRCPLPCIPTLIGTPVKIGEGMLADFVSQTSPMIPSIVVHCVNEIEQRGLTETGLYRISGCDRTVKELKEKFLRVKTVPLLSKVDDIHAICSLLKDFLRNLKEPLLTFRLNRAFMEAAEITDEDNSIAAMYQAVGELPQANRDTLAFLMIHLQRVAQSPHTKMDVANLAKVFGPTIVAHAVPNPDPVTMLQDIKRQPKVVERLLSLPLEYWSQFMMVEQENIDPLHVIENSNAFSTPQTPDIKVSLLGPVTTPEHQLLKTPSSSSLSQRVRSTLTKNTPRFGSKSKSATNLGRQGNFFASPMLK
As to the kind of experiment: MgcRacGAP GTPase-activating activity inhibitors, confirmation, biochemical, ADP Hunter fluorescence, primary and confirmatory (AID 624330). In kind it is functional.

Data set [12] is described as follows: cytotoxicity toward NIH3T3 fibroblasts, dose response, counter-screen, cell-based, ATP luminescence, mouse fibroblasts (AID 2010).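 Further: cells exposed to compound for about 90 hours before reading.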 In kind it is functional.
Data set [13] is described as follows: inhibitors of intracellular T. cruzi replication, confirmation, NIH3T3 host cells, beta-gal luminescence (AID 2044).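 Further: intracellular parasites grown in NIH/3T3 mouse fibroblasts as host cells; luminescent beta-galactosidase reporter signal from transgenic T. cruzi replicating inside host cells; inhibitors lower the luminescence signal.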 In kind it is functional, cell-based.

T1 sequence (P31941 whole entry): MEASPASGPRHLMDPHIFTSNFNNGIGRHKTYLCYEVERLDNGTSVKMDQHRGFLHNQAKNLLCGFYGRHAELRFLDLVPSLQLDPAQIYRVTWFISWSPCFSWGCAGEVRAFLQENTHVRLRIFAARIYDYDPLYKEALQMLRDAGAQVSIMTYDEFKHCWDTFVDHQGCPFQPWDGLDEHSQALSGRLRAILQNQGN
Chain of Cytochrome P450 2C9 (P11712 whole entry): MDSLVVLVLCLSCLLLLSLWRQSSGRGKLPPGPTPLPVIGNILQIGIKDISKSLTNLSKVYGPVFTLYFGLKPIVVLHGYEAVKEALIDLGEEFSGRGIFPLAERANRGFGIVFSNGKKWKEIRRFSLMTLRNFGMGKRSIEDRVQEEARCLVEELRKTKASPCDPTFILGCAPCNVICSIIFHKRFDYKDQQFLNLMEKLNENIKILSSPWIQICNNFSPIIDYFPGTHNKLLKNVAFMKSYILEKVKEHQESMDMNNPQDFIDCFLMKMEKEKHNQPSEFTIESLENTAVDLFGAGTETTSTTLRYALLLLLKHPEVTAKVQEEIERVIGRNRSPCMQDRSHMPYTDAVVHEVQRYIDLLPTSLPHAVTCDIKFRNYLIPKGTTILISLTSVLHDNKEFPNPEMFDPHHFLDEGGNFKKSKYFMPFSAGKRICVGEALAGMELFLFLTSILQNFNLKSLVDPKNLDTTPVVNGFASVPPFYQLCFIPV
Chain of Glyceraldehyde-3-phosphate dehydrogenase (P04406 whole entry): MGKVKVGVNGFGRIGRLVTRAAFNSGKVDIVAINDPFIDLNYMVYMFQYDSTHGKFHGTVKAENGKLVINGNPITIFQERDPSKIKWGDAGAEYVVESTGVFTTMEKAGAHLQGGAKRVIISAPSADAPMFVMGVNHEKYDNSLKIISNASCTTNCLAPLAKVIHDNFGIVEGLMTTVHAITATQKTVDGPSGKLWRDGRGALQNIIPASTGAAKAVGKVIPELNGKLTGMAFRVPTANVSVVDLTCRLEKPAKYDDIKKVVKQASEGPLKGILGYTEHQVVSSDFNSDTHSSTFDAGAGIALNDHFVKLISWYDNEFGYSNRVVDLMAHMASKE
Chain of Cytochrome P450 3A4 (P08684 whole entry): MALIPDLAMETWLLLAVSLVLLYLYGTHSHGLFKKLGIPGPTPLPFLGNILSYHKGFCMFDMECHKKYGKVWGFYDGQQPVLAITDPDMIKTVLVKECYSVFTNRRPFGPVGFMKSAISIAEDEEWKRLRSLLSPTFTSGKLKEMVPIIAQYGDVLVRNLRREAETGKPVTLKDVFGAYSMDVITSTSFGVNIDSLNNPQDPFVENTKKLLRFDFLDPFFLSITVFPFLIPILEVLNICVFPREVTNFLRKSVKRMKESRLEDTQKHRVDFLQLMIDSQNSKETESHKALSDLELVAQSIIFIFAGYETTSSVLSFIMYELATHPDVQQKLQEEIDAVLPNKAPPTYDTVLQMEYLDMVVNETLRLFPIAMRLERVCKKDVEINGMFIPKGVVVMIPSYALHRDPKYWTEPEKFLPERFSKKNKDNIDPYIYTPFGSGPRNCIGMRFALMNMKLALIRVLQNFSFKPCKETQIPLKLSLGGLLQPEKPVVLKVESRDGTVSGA

`Fc1ccccc1/C=N/n1c(S)nnc1-c1cccnc1`: the results for the IC50 in [1] and in [2] were > 100 µM (inactive) and 3.16 µM (active), respectively.

As for `Cc1ccc(/C=N/n2c(S)nnc2-c2ccncc2)o1`, the IC50 is > 100 µM (inactive) in data set [1] and 6.55 µM (active) in data set [2].

For `C[N+](C)(C)CCOC(=O)C1(c2ccccc2)CCCC1`, the IC50 was 1.06 µM (active) in [3] and 1.12 µM (active) in data set [4].

Take `Cc1cc(C)c2sc(NC(=O)C3=COCCO3)nc2c1`: in data set [5], the IC50 was > 80 µM (inactive).

In the case of `Cc1ccc(C)c(S(=O)(=O)N2CCN(C(=O)CCc3nc(O)c4ccccc4n3)CC2)c1`, the EC50 in data set [6] was 4.73 µM (active). Moreover, the IC50 in the data set on H9c2 is > 79 µM (inactive).

Take `CC(=O)N1CCc2c(sc(NC(=O)C3CCCN3S(=O)(=O)c3cccs3)c2C(N)=O)C1` (stereo not drawn): the EC50 was 10.2 µM (active) in data set [7]; 18.5 µM (inactive) on Troponin, cardiac muscle; 5.83 µM (active) in [8].

Turning to `Cc1ccc2c(c1)C1(SCCS1)C(=O)N2`, the AC50 entry on Cytochrome P450 2C9 was “inconclusive”; on Cytochrome P450 3A4 it was 11.2 µM (inconclusive).

In the case of `CC(=C\C(=O)O)/C(=C/c1ccccc1)C(=O)O`, on Cytochrome P450 2C9, the AC50 result was “inconclusive”.

For `Nn1c(COc2ccc(Cl)cc2)n[nH]c1=S`, the IC50 in data set [1] is > 100 µM (inactive); in data set [2], 2.49 µM (active).

Turning to `COC(=O)c1cc(N2CCNCC2)nc2ccccc12`, the concentration giving a half-maximal response (EC50) in data set [6] was 1.19 µM (active).

For `CCc1nc(NCCc2ccccn2)c2nnn(Cc3ccccc3F)c2n1`, the concentration for a half-maximal effect (EC50) in data set [6] is 2.66 µM (active).

On to `COC(=O)c1cnn(C(=O)c2cc(OC)ccc2Br)c1N`, for which, on Cytochrome P450 2C9, the AC50 result was “inconclusive”.

As to `COc1cccc(C(=O)N/N=C/c2ccc(Oc3ccc([N+](=O)[O-])cn3)c(OC)c2)c1`, the IC50 was 3.44 µM (active) in [3] and 3.84 µM (active) in data set [4].

For `O=S(=O)(Nc1cnc2ccccc2c1)c1ccc(Br)cc1OC(F)(F)F`, the values for the concentration for half-maximal inhibition (IC50) in data set [9] and in data set [10] were > 100 µM (not active) and 1.5 µM (active), respectively.

For the compound `Cc1ccc(S(=O)(=O)Nc2ccc3ccccc3c2)cc1`, the IC50 in data set [9] is > 100 µM (not active); in data set [10], > 100 µM (inactive).

As for `COc1cc(Sc2ccc(C)cc2)c(OC)cc1N`, the figures for the IC50 in data set [5] and in data set [11] were > 80 µM (inactive) and 24.8 µM (active), respectively.

For `O=C(NCCc1c[nH]cn1)c1ccc(-c2ccccc2)cc1`, the EC50 in data set [12] was > 30 µM (not active); in data set [6] it was 5.96 µM (active); in the data set “cells”, 0.062 µM (active); in data set [13], < 0.1 µM (active).

Take `CN(CC(=O)NCc1ccco1)S(=O)(=O)c1cccc2cccnc12`: the EC50 at Troponin, cardiac muscle is > 71.5 µM (inactive).

Usually IC50 stands for the concentration needed to halve the response being measured. As a reminder, the EC50 is the concentration that produces a half-maximal response. In general, AC50 refers to the concentration at which the activity in the assay is half-maximal.
